Results reported in patent publication US6160087A, “Peptides having an amino acid sequence from the fimbrial protein of porphyromonas gingivalis and their uses” (priority 1993, dated 2000).

Legend:
[1] = system: Porphyomonas gingivalis strain 381; experiment: Inhibitory test of Porphyomonas gingivalis infection in Golden hamster with vaccine: resorption of alveolar bone; format: in vivo, Golden hamsters; conditions: for degree of resorption of the alveolar bone: in words; for Absorbance of alveolar bone (average): vaccine of Example 3, induction with Porphyomonas gingivalis strain 381, 80 days
Excerpt: The effects of vaccine on Peptide 1 and Peptide 7 selected from the results of Test example 1, Test example 2, Test example 3, Test example 4 and Test example 5 were examined according to the following method using degree of resorption of alveolar bone and antibody titer as measures, using the vaccine described in Example 3.
(§1) 3-week-old Golden hamsters (one group consisting of 6 animals, 5 groups in total, 1 Porphyomonas gingivalis strain 381 fimbria immunity induction group, 2 Peptide 1 immunity induction group, 3 Peptide 7 immunity induction group, 4 Nonimmunity induction group, 5 Nonimmunity noninduction group) were used.
(§2) Each of the vaccines of the invention was subcutaneously administered at the oral cavity in amounts of 0.2 ml portions on the third week and the fourth week after the birth, and 0.4 ml on the fifth week.
(§3) Induction of periodontal disease was conducted by culturing Porphyomonas gingivalis strain 381 in GAM broth at 37° C. for 20 hours, collecting the cells by centrifugation, suspending the cells in phisiological saline so that the cell concentration could be 10^9 cells/ml, administering 0.2 ml portions of the suspension into the oral cavity of the Golden hamsters for 7 days starting from the sixth week after the birth, and thereafter, administering the suspension once a week.
After the start of the cell administration, the animals were allowed to freely ingest Diet 2000 (made by Funabashi Nojo) as a dental caries-inducing feed and water.
(§4) After the Golden hamsters were fed for 80 days, 1 ml/kg portions of 0.5% pilocarpine hydrochloride were intraperitoneally administered, and saliva was taken from them. Thereafter, blood was taken from the abdominal aorta of each animal, and serum was obtained therefrom. Further, a bone preparation from each hamster was produced by amputating the head, heat treating the head using an autoclave, removing the muscle part, and washing with water and drying the remaining matter.
The bone preparation was assayed for degree of resorption of the alveolar bone of a molar according to the method^f) of Tsukiyama et al. (Koku Eisei Kaishi (Jornal of Hygiene of Oral Cavity) 28, No. 3, 149, 1978).
f) The bone preparation was stained with 20% silver nitrate solution for 5 minutes, and after water washing and drying, the distance from the enamel-cement junction to the alveolar bone edge was measured by a stereoscopic microscope (magnification 15-fold).

Porphyomonas gingivalis = format: in vivo, guinea pig; conditions: for inhibitory effect against infection with Porphyomonas gingivalis: guinea pig, in words; for Degree of redness Longest length × shortest length / Inhibition rate: with FCA; for Degree of redness Longest length × shortest length: 500 μg/animal, inoculation on the 28th day, 24 hours later; for Inhibition rate: relative to the FIA inoculation group
Method: Each peptide synthesized in Example 2 was administered together with FIA (Freund's incomplete adjuvant) or FCA (Freund's complete adjuvant), as a water-in-oil type emulsifier, into the sole of the right hind leg of a guinea pig in an amount of 500 μg/animal/time. Thereafter, on the 28th day, 200 μl of a suspension of 10^11 cells/ml of the bacterium was intracutaneously inoculated into the right flank of the same guinea pig after the hair at the region was shaved. 24 hours later, the longest length and shortest length of the resultant red coloring were measured, and the product of them was calculated. From the product was calculated the inhibition rate.

[2] = Immunization of mice with the peptides: body weight; format: in vivo; conditions: mice immunized with FCA emulsion, 3 animals per group
Method: (§5) Each peptide synthesized in Example 2 was dissolved in PBS so as to make the concentration 200 μg/ml, the solution was mixed with the same volume of FCA, and the mixture after emulsification was subcutaneously injected into mice at the back (3 animals per group). 4 weeks later, the antibody titer in the serum or saliva against the peptide was assayed by an ELISA method.

[3] = Inhibitory test of Porphyomonas gingivalis infection in Golden hamster with vaccine: body weight; format: in vivo, Golden hamsters; conditions: vaccine of Example 3, subcutaneous at the oral cavity, fed for 80 days
Method: as §1, §2, §4

[4] = system: fimbrial protein of Porphyomonas gingivalis; experiment: Immunization of mice with the peptides: antibody titer in serum or saliva by ELISA; format: in vivo; conditions: A405 value by the ELISA method, with FCA, 4 weeks later
Method: as §5
The fimbrial protein of Porphyomonas gingivalis was adsorbed on each well of a 96-well microtiter plate for ELISA, and a dilution of the serum with PBS (1/10^5), a dilution of the saliva with PBS (1/500), or a solution obtained by adding each peptide or the fimbrial protein of Porphyomonas gingivalis is to the dilution of the serum or saliva to cause absorption was put in the well. Reaction was conducted at 37° C. for 1 hour, and then assay was conducted by a usual ELISA method.

the peptide = experiment: Inhibitory test of Porphyomonas gingivalis infection in Golden hamster with vaccine: antibody titer in serum and saliva; format: in vivo, Golden hamsters; conditions: for Antibody titer Saliva (1/500) / Antibody titer Serum (1/10^5): A405 value by the ELISA method; for antibody titer in the sera and saliva: in words
Method: as §1, §2, §3, §4
The saliva and serum were assayed for antibody titer against the peptide.

[5] = system: anti-Porphyomonas gingivalis fimbria antibodies contained in sera of patients with periodontal disease; experiment: Assay of the specific antibody in serum using plates coated with peptide-modified BSA (ELISA); format: binding, human; conditions: average absorbance (405 nm) of 3 specimens, serum diluted 100 times
Method: One mg of each peptide synthesized in Example 2 was dissolved in 1 ml of 0.1 M phosphate buffered saline (PBS, pH 6.0), 5 mg of sulfated SMCC (made by Pierce Co.) was added, and the mixture was incubated at 30° C. for 30 minutes to conduct maleimidization, and then subjected to Sephadex G-10 column chromatography, and the first eluate fraction was collected. 7 mg of bovine serum albumin (BSA: made by Wako Pure Chemical Industries, Ltd.) was dissolved in 1 ml of 0.1 M phosphate buffer (pH 6.0), 10 mM EDTA, the solution was mixed with the above maleimidized peptide, and the mixture was subjected to reaction at 30° C. for 1 hour. The resultant peptide-modified BSA was subjected to Sephadex G-50 column chromatography, and the first eluate fraction was collected as a plate-preparing antigen solution.
Then, six kind of peptides were synthesized after the process of Example 2, and a plate-preparing antigen solution was similarly prepared as a control.
Each of the resultant antigen solutions was diluted with 0.1 M carbonate buffer (pH 9.6), 150 mM NaCl to give 100 ml of a solution. 10 μl/well of the solution was put in a polystyrene-made microtiter plate (Immunoplate II; maxisorp type; made by Nunc Co.) and left alone at 4° C. overnight, and washing was conducted three times each with 200 μl/well of PBS, using a microtiter automatic washer (hereafter abbreviated as washer; made by Bio-Rad Laboratories). 250 μl/well of PBS containing 0.1% gelatin (made by Nitta Gelatin Co., Ltd.) was added and the mixture was allowed to stand at 4° C. overnight to block the plate. The blocking solution was removed by absorption, and the plate was dried by a vacuum dryer, put in an aluminum bag, and after sealing the bag, kept at 4° C. for the following assay.
Sera of patients of periodontal disease (n=3) and normal subjects (n=3) were used as samples, and each serum was diluted 100 times with PBS containing 10% bovine serum. 100 μl portions of these dilutions were added to the plates coated with various antigens, respectively, and incubation was conducted at 37° C. for 1 hour. Each plate was washed three times with 200 μl of PBST using the washer, 100 μl of a commercially available […] (diluted 10^3 times)/0.1% Casein/PBST was added as a secondary antibody, and incubation was conducted again at 37° C. for 1 hour. The plate was washed in the same manner as above, 100 μl of an o-phenylenediamine solution was added, incubation was conducted at 37° C. for 30 minutes, 100 μl of 0.1 N sulfuric acid was added to stop the reaction, and then, absorbance (405 nm) was measured by a microplate reader (made by Bio-Rad Laboratories) using the reaction well of no addition of the specimen as a control. The measures values are average absorbances of 3 specimens each of the patient group of periodontal disease and the normal subject group.

Peptide 1: synthetic peptide, epitope of the 41 kD fimbrial subunit protein of Porphyomonas gingivalis; sequence in Table 1, not shown (ENATKVEDIK)
degree of resorption of the alveolar bone [1]: inhibition of absoption of the alveolar bone | Absorbance of alveolar bone (average) [1]: 48 | inhibitory effect against infection with Porphyomonas gingivalis (Porphyomonas gingivalis): strong inhibitory effect | Degree of redness Longest length × shortest length (Porphyomonas gingivalis): 660 mm^2 | Inhibition rate (Porphyomonas gingivalis): 66.1% | Body weight (Average g) [2]: 25 g | Body weight (at the time of production of bone preparation) (average g) [3]: 124 g | Antibody titer Saliva (1/500) After absorption [4]: 0.11 | Antibody titer Saliva (1/500) Before absorption [4]: 0.61 | Antibody titer Serum (1/10^5) After absorption [4]: 0.19 | Antibody titer Serum (1/10^5) Before absorption [4]: 0.62 | Antibody titer Saliva (1/500) (the peptide): 0.62 | Antibody titer Serum (1/10^5) (the peptide): 0.65 | antibody titer in the sera and saliva (the peptide): increse of antibody titer | Antibody titer, Normal subject group [5]: 0.145 | Antibody titer, Patient group with peridontal disease [5]: 1.016

Peptide 7: synthetic peptide, epitope of the 41 kD fimbrial subunit protein of Porphyomonas gingivalis; sequence in Table 1, not shown (GFYVLENDYS)
degree of resorption of the alveolar bone [1]: inhibition of absoption of the alveolar bone | Absorbance of alveolar bone (average) [1]: 41 | inhibitory effect against infection with Porphyomonas gingivalis (Porphyomonas gingivalis): strong inhibitory effect | Degree of redness Longest length × shortest length (Porphyomonas gingivalis): 240 mm^2 | Inhibition rate (Porphyomonas gingivalis): 87.7% | Body weight (Average g) [2]: 23 g | Body weight (at the time of production of bone preparation) (average g) [3]: 123 g | Antibody titer Saliva (1/500) After absorption [4]: 0.15 | Antibody titer Saliva (1/500) Before absorption [4]: 0.69 | Antibody titer Serum (1/10^5) After absorption [4]: 0.14 | Antibody titer Serum (1/10^5) Before absorption [4]: 0.67 | Antibody titer Saliva (1/500) (the peptide): 0.79 | Antibody titer Serum (1/10^5) (the peptide): 0.71 | antibody titer in the sera and saliva (the peptide): increse of antibody titer | Antibody titer, Normal subject group [5]: 0.226 | Antibody titer, Patient group with peridontal disease [5]: 1.224
